Source: patent publication US11800868B2, “Isoflavonoid compounds and use thereof” (Novozymes BioAg A/S, priority 2004, dated 2023)

What was measured:
[1] = system: tomato; test: Signal applied to tomato seedling roots transplanted into soil inoculated with soybean rhizobia (field)
[2] = system: potato; test: Growth promotion of potato tubers with signals, field; format: in vivo
Description: Notes: • 1. Microtubers (cv. Bintje, tuber size from 0.5-0.7 g) were soaked in each test solution overnight at 25° C. in the incubator. Treatment rate was 50 ml/treatment, and 50 ml water as control. • 2. […] Treated potato tubers were planted in soil 10-15 cm deep, 10 tubers in 10 M^2 plot and supplied 500 ml of water to each tuber in ground after planting. • 4. Planted date: Aug. 20, 2004 and harvested date: Oct. 15, 2004.

SMILES: O=c1c(-c2ccc(O)cc2)coc2cc(O)cc(O)c12 [genistein]
- Fruit/plot ([1]; 100 ml at 1 μM/plant, Early): 67.75
- Fruit/plot % vs ctrl ([1]; 100 ml at 1 μM/plant, Early): 16.81%
- Kg/plot ([1]; 100 ml at 1 μM/plant, Early): 12.02 Kg/plot
- Kg/plot % vs ctrl ([1]; 100 ml at 1 μM/plant, Early): 15.47%
- Fruit/plot ([1]; 100 ml at 1 μM/plant, Normal): 241.5
- Fruit/plot % vs ctrl ([1]; 100 ml at 1 μM/plant, Normal): 10.27%
- Kg/plot ([1]; 100 ml at 1 μM/plant, Normal): 27.10 Kg/plot
- Kg/plot % vs ctrl ([1]; 100 ml at 1 μM/plant, Normal): 5.86%
- Fruit/plot ([1]; 100 ml at 10 μM/plant, Early): 66.25
- Fruit/plot % vs ctrl ([1]; 100 ml at 10 μM/plant, Early): 14.22%
- Kg/plot ([1]; 100 ml at 10 μM/plant, Early): 11.64 Kg/plot
- Kg/plot % vs ctrl ([1]; 100 ml at 10 μM/plant, Early): 11.82%
- Fruit/plot ([1]; 100 ml at 10 μM/plant, Normal): 217.75
- Fruit/plot % vs ctrl ([1]; 100 ml at 10 μM/plant, Normal): −0.57%
- Kg/plot ([1]; 100 ml at 10 μM/plant, Normal): 25.91 Kg/plot
- Kg/plot % vs ctrl ([1]; 100 ml at 10 μM/plant, Normal): 1.21%
- Fruit/plot ([1]; 100 ml at 50 μM/plant, Early): 71
- Fruit/plot % vs ctrl ([1]; 100 ml at 50 μM/plant, Early): 22.41%
- Kg/plot ([1]; 100 ml at 50 μM/plant, Early): 12.85 Kg/plot
- Kg/plot % vs ctrl ([1]; 100 ml at 50 μM/plant, Early): 23.44%
- Fruit/plot ([1]; 100 ml at 50 μM/plant, Normal): 198.5
- Fruit/plot % vs ctrl ([1]; 100 ml at 50 μM/plant, Normal): −9.36%
- Kg/plot ([1]; 100 ml at 50 μM/plant, Normal): 25.77 Kg/plot
- Kg/plot % vs ctrl ([1]; 100 ml at 50 μM/plant, Normal): 0.66%
- tuber size ([2]; 300-500 μM): larger tuber size
- potato tuber yield increase over control ([2]; microtubers soaked in 300 μM solution overnight): up to 17.7%
